According to patent US20200267980A1, “Herbicidally Active Pyridyl-/Pyrimidyl-Pyrimidine Derivatives” (Syngenta Participations AG, priority 2017, published 2020):

Legend:
Format in all cases: in vivo
Setaria faberi (SETFA) [1] = test: Post-emergence herbicidal activity, glasshouse pot test; design: key: 5=total damage to plant; 0=no damage to plant; conditions: 1000 g/ha, post-emergence spray after 8 days cultivation, evaluated after 13 days, damage score 0-5
Method: (§1) Seeds of a variety of test species were sown in standard soil in pots: Triticum aestivium (TRZAW), Avena fatua (AVEFA), Alopecurus myosuroides (ALOMY), Echinochloa crus-galli (ECHCG), Lolium perenne (LOLPE), and Setaria faberi (SETFA). After 8 days cultivation (post-emergence) under controlled conditions in a glasshouse (at 24/16° C., day/night; 14 hours light; 65% humidity), the plants were sprayed with an aqueous spray solution derived from the formulation of the technical active ingredient in acetone/water (50:50) solution containing 0.5% Tween 20 (polyoxyethelyene sorbitan monolaurate, CAS RN 9005-64-5). The test plants were then grown in a glasshouse under controlled conditions (at 24/16° C., day/night; 14 hours light; 65% humidity) and watered twice daily. After 13 days, the test was evaluated (5=total damage to plant; 0=no damage to plant).

Lolium perenne (LOLPE) [2] = test: as above; design: key: 5=total damage to plant; 0=no damage to plant; conditions: 1000 g/ha, post-emergence spray after 8 days cultivation, evaluated after 13 days, damage score 0-5
Method: as §1

[3] = tested on: Triticum aestivium (TRZAW); test: as above; design: key: 5=total damage to plant; 0=no damage to plant; conditions: 1000 g/ha, post-emergence spray after 8 days cultivation, evaluated after 13 days, damage score 0-5
Method: as §1

[4] = tested on: Echinochloa crus-galli (ECHCG); test: as above; design: key: 5=total damage to plant; 0=no damage to plant; conditions: 1000 g/ha, post-emergence spray after 8 days cultivation, evaluated after 13 days, damage score 0-5
Method: as §1

[5] = tested on: Alopecurus myosuroides (ALOMY); test: as above; design: key: 5=total damage to plant; 0=no damage to plant; conditions: 1000 g/ha, post-emergence spray after 8 days cultivation, evaluated after 13 days, damage score 0-5
Method: as §1

Avena fatua (AVEFA) [6] = test: as above; conditions: 1000 g/ha, post-emergence spray after 8 days cultivation, evaluated after 13 days, damage score 0-5
Method: as §1

Setaria faberi (SETFA) [7] = test: Pre-emergence herbicidal activity, glasshouse pot test; design: key: 5=total damage to plant; 0=no damage to plant; conditions: 1000 g/ha, pre-emergence spray, evaluated after 13 days, damage score 0-5
Method: as §1, with “After” for “After 8 days”, “for one day (pre-emergence)” for “(post-emergence)”

Lolium perenne (LOLPE) [8] = test: as above; design: key: 5=total damage to plant; 0=no damage to plant; conditions: 1000 g/ha, pre-emergence spray, evaluated after 13 days, damage score 0-5
Method: as §1, with “After” for “After 8 days”, “for one day (pre-emergence)” for “(post-emergence)”

Avena fatua (AVEFA) [9] = test: as above; design: key: 5=total damage to plant; 0=no damage to plant; conditions: 1000 g/ha, pre-emergence spray, evaluated after 13 days, damage score 0-5
Method: as §1, with “After” for “After 8 days”, “for one day (pre-emergence)” for “(post-emergence)”

[10] = tested on: Triticum aestivium (TRZAW); test: as above; design: key: 5=total damage to plant; 0=no damage to plant; conditions: 1000 g/ha, pre-emergence spray, evaluated after 13 days, damage score 0-5
Method: as §1, with “After” for “After 8 days”, “for one day (pre-emergence)” for “(post-emergence)”

[11] = tested on: Echinochloa crus-galli (ECHCG); test: as above; design: key: 5=total damage to plant; 0=no damage to plant; conditions: 1000 g/ha, pre-emergence spray, evaluated after 13 days, damage score 0-5
Method: as §1, with “After” for “After 8 days”, “for one day (pre-emergence)” for “(post-emergence)”

[12] = tested on: Alopecurus myosuroides (ALOMY); test: as above; design: key: 5=total damage to plant; 0=no damage to plant; conditions: 1000 g/ha, pre-emergence spray, evaluated after 13 days, damage score 0-5
Method: as §1, with “After” for “After 8 days”, “for one day (pre-emergence)” for “(post-emergence)”

Compound: COCCC(=O)Nc1cnc(-c2cncnc2)nc1C(F)(F)F [Compound F16]
- Control of weed species after post-emergence application, SETFA (Setaria faberi (SETFA) [1]): 5
- Control of weed species after post-emergence application, LOLPE (Lolium perenne (LOLPE) [2]): 2
- Control of weed species after post-emergence application, TRAZW [3]: 1
- Control of weed species after post-emergence application, ECHCG [4]: 5
- Control of weed species after post-emergence application, ALOMY [5]: 1
- Control of weed species after post-emergence application, AVEFA (Avena fatua (AVEFA) [6]): 3
- Control of weed species after pre-emergence application, SETFA (Setaria faberi (SETFA) [7]): 5
- Control of weed species after pre-emergence application, LOLPE (Lolium perenne (LOLPE) [8]): 1
- Control of weed species after pre-emergence application, AVEFA (Avena fatua (AVEFA) [9]): 1
- Control of weed species after pre-emergence application, TRAZW [10]: 0
- Control of weed species after pre-emergence application, ECHCG [11]: 4
- Control of weed species after pre-emergence application, ALOMY [12]: 0

Compound: COCC(=O)Nc1cnc(-c2cncc(F)c2)nc1C(F)(F)F [Compound F3]
- Control of weed species after post-emergence application, SETFA (Setaria faberi (SETFA) [1]): 4
- Control of weed species after post-emergence application, LOLPE (Lolium perenne (LOLPE) [2]): 2
- Control of weed species after post-emergence application, TRAZW [3]: 1
- Control of weed species after post-emergence application, ECHCG [4]: 4
- Control of weed species after post-emergence application, ALOMY [5]: 0
- Control of weed species after post-emergence application, AVEFA (Avena fatua (AVEFA) [6]): 4
- Control of weed species after pre-emergence application, SETFA (Setaria faberi (SETFA) [7]): 3
- Control of weed species after pre-emergence application, LOLPE (Lolium perenne (LOLPE) [8]): 1
- Control of weed species after pre-emergence application, AVEFA (Avena fatua (AVEFA) [9]): 2
- Control of weed species after pre-emergence application, TRAZW [10]: 0
- Control of weed species after pre-emergence application, ECHCG [11]: 3
- Control of weed species after pre-emergence application, ALOMY [12]: 0

Compound: O=C(Nc1cnc(-c2cncc(F)c2)nc1C(F)(F)F)C1CCC1 [Compound F26]
- Control of weed species after post-emergence application, SETFA (Setaria faberi (SETFA) [1]): 5
- Control of weed species after post-emergence application, LOLPE (Lolium perenne (LOLPE) [2]): 2
- Control of weed species after post-emergence application, TRAZW [3]: 1
- Control of weed species after post-emergence application, ECHCG [4]: 5
- Control of weed species after post-emergence application, ALOMY [5]: 1
- Control of weed species after post-emergence application, AVEFA (Avena fatua (AVEFA) [6]): 4
- Control of weed species after pre-emergence application, SETFA (Setaria faberi (SETFA) [7]): 4
- Control of weed species after pre-emergence application, LOLPE (Lolium perenne (LOLPE) [8]): 0
- Control of weed species after pre-emergence application, AVEFA (Avena fatua (AVEFA) [9]): 1
- Control of weed species after pre-emergence application, TRAZW [10]: 1
- Control of weed species after pre-emergence application, ECHCG [11]: 3
- Control of weed species after pre-emergence application, ALOMY [12]: 0

Compound: CCCC(=O)Nc1cnc(-c2cncc(F)c2)nc1C(F)(F)F [Compound F33]
- Control of weed species after post-emergence application, SETFA (Setaria faberi (SETFA) [1]): 5
- Control of weed species after post-emergence application, LOLPE (Lolium perenne (LOLPE) [2]): 2
- Control of weed species after post-emergence application, TRAZW [3]: 1
- Control of weed species after post-emergence application, ECHCG [4]: 4
- Control of weed species after post-emergence application, ALOMY [5]: 1
- Control of weed species after post-emergence application, AVEFA (Avena fatua (AVEFA) [6]): 3
- Control of weed species after pre-emergence application, SETFA (Setaria faberi (SETFA) [7]): 4
- Control of weed species after pre-emergence application, LOLPE (Lolium perenne (LOLPE) [8]): 0
- Control of weed species after pre-emergence application, AVEFA (Avena fatua (AVEFA) [9]): 1
- Control of weed species after pre-emergence application, TRAZW [10]: 1
- Control of weed species after pre-emergence application, ECHCG [11]: 4
- Control of weed species after pre-emergence application, ALOMY [12]: 0

Compound: O=C(CC(F)(F)F)Nc1cnc(-c2cncc(F)c2)nc1C(F)(F)F [Compound F23]
- Control of weed species after post-emergence application, SETFA (Setaria faberi (SETFA) [1]): 5
- Control of weed species after post-emergence application, LOLPE (Lolium perenne (LOLPE) [2]): 2
- Control of weed species after post-emergence application, TRAZW [3]: 0
- Control of weed species after post-emergence application, ECHCG [4]: 5
- Control of weed species after post-emergence application, ALOMY [5]: 0
- Control of weed species after post-emergence application, AVEFA (Avena fatua (AVEFA) [6]): 3
- Control of weed species after pre-emergence application, SETFA (Setaria faberi (SETFA) [7]): 5
- Control of weed species after pre-emergence application, LOLPE (Lolium perenne (LOLPE) [8]): 0
- Control of weed species after pre-emergence application, AVEFA (Avena fatua (AVEFA) [9]): 0
- Control of weed species after pre-emergence application, TRAZW [10]: 0
- Control of weed species after pre-emergence application, ECHCG [11]: 3
- Control of weed species after pre-emergence application, ALOMY [12]: 0
